Holding throughout (assay type): functional, cell-based
Assay [1] deals with COLO 205. As to the kind of experiment: In vitro growth inhibition of COLO 205 (colon cell line) human tumor cells.
For assay [2], the system named is HepG2. As to the kind of experiment: In vitro growth inhibition of Hep G2 ([…] line) human tumor cells.
The test system of assay [3] is MOLT-4. As to the kind of experiment: In vitro growth inhibition of Molt-4 (leukemia cell line) human tumor cells.
The subject of assay [4] is SK-BR-3. As to the kind of experiment: In vitro growth inhibition of SK-BR-3 (breast cancer cell line) human tumor cells.

Data on seven compounds can be found in ChEMBL document CHEMBL1129164, “Molecular design, chemical synthesis and biological studies of novel enediynes related to dynemicin a” (Bioorg Med Chem Lett, 1996).

Values after ≈ are worked out from the molar mass of the structure shown.

For `CCOC(=O)N1c2ccccc2[C@@H](S(=O)(=O)c2ccccc2)[C@H](O)C1C#Cc1ccccc1C#CCS(=O)(=O)c1ccccc1` (stereo partly drawn), the IC50 (usually the concentration that gives 50% inhibition) turned out to be 5.33 µg/mL (≈ 8.33 µM) in assay [1], 3.75 µg/mL (≈ 5.86 µM) in assay [2], 0.73 µg/mL (≈ 1.14 µM) in assay [3] and 6.26 µg/mL (≈ 9.79 µM) in assay [4].

On to `CCOC(=O)N1c2ccccc2C(=O)CC1C#C/C=C\C#CCS(=O)(=O)c1ccccc1` (stereo not drawn), for which the half-inhibitory concentration (IC50) in assay [1] worked out at 53 µg/mL (≈ 119 µM); in assay [2], 50.2 µg/mL (≈ 112 µM); in assay [3] it was 5.63 µg/mL (≈ 12.6 µM); in assay [4], 43.9 µg/mL (≈ 98 µM).

In the case of `CCOC(=O)N1c2ccccc2[C@@H](O)[C@H](O)C1C#C/C=C\C#CCS(=O)(=O)c1ccccc1` (stereo partly drawn), the IC50 in assay [1] was found to be 49.7 µg/mL (≈ 107 µM); in assay [2] it was 57.8 µg/mL (≈ 124 µM); in assay [3], 10.2 µg/mL (≈ 21.9 µM); in assay [4] it was 46.7 µg/mL (≈ 100 µM).

With `C#CC1[C@H]2O[C@H]2c2ccccc2N1C(=O)OCC` (stereo partly drawn), the IC50 in assay [1] is more than 100 µg/mL; in assay [2] it was more than 100 µg/mL; in assay [3], 66.5 µg/mL (≈ 274 µM); in assay [4] it was more than 100 µg/mL.

Consider `CCOC(=O)N1c2ccccc2C(=O)CC1C#Cc1ccccc1C#CCS(=O)(=O)c1ccccc1` (stereo not drawn), for which the IC50 was determined as 50.1 µg/mL (≈ 101 µM) in assay [1], 70 µg/mL (≈ 141 µM) in assay [2], 7.26 µg/mL (≈ 14.6 µM) in assay [3] and 53.6 µg/mL (≈ 108 µM) in assay [4].

For the compound `CCOC(=O)N1c2ccccc2[C@@H]2O[C@@H]2C1C#C/C=C\C#CCS(=O)(=O)c1ccccc1` (stereo partly drawn), the IC50 was 26 µg/mL (≈ 58 µM) in assay [1], 9.01 µg/mL (≈ 20.1 µM) in assay [2], 5.5 µg/mL (≈ 12.3 µM) in assay [3] and 19.5 µg/mL (≈ 43.5 µM) in assay [4].

On to `CCOC(=O)N1c2ccccc2[C@@H]2O[C@@H]2C1C#Cc1ccccc1C#CCS(=O)(=O)c1ccccc1` (stereo partly drawn), for which the IC50 in assay [1] was 9.59 µg/mL (≈ 19.3 µM); in assay [2] it was 8.91 µg/mL (≈ 17.9 µM); in assay [3] it was 4.64 µg/mL (≈ 9.33 µM); in assay [4], 9.23 µg/mL (≈ 18.6 µM).
